Patent US20240368194A1, “IRAK4 DEGRADATION AGENT, AND PREPARATION METHOD THEREFOR AND USE THEREOF” (SHANGHAI LEADINGTAC PHARMACEUTICAL CO. LTD., priority 2021, published 2024)

Assays:
IRAK4 kinase = IRAK4 kinase (Homo sapiens (Human), UniProt Q9NWZ3); experiment: IRAK4 kinase activity test (KinEASE-STK S1 HTRF kit); type: biochemical; conditions: 2.5 nM IRAK4 kinase, 7 μM ATP, 37° C. 120 min
Outline: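 Human IRAK4 (2.5 nM) with 1 μM biotinylated peptide substrate and 7 μM ATP, incubated 120 min at 37 °C. HTRF read-out (Eu anti-phospho-Ser/Thr antibody, XL665-streptavidin; 665/620 nm ratio) after 1 h at room temperature. IC50 from inhibition relative to control by non-linear fit of log concentration.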

[1] = target: IRAK4 protein in THP-1 cells (Homo sapiens (Human), UniProt Q9NWZ3); experiment: Degradation of IRAK4 in THP-1 cells, human IRAK4 AlphaLISA assay; type: cell-based; conditions: 24 h incubation
Outline: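 THP-1 cells, after overnight plating, exposed 24 h at 37 °C to compound at 0.03-3000 nM final. Lysate IRAK4 read by Western blot and by AlphaLISA (acceptor beads 10 μg/mL, biotin anti-IRAK4 1 nM, donor beads 40 μg/mL, 23 °C). DC50 and Dmax from log concentration-response fit.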

[2] = system: IL-6 production in LPS-induced human whole blood; experiment: IL-6 secreted by LPS-induced normal human whole blood PBMCs (IL-6 AlphaLISA); type: cell-based; conditions: compound 20 h, then LPS 100 ng/mL 5 h
Experimental: Fresh normal human whole blood (healthy people from 22-50 years of age, freshly collected blood) anticoagulated with heparin sodium was plated onto a 96-well clear cell plate (Labserv, 310109008) at 190 μL/well, and 10 μL of diluted compound solution was then added to corresponding wells, such that the final concentration of the compound fell within the range of 10-20,000 nM. The final concentration of dimethyl sulfoxide was 0.1%. The compound-treated cell plate was sealed with a plate-sealing membrane. After the plate was incubated in a 37° C., 5% carbon dioxide incubator for 20 h, 10 μL of LPS (0111:B4) (Sigma, L4391) was added, making a final concentration of 100 ng/mL. […]
IL-6 standard solutions with different concentrations, ranging from […], were prepared by following the instructions for use of the product, 2 μL of each of the IL-6 standard solutions and test samples of cell supernatant were added to a white 384-well plate (PerkinElmer, 6007299), and 8 μL of a mixed solution of 5× anti-IL-6 receptor beads (PerminElmer, final concentration of 10 μg/mL) and biotin-labeled anti-IL-6 antibody (PerminElmer, final concentration of 1 nM) was then added to each well. […] After the incubation was complete, AlphaLISA signal values were measured on a microplate reader EnVision (PerkinElmer, 2105) in the AlphaScreen standard mode. […]

[3] = system: IL-6 production in LPS-induced human PBMCs; experiment: IL-6 secreted by LPS-induced human PBMCs (IL-6 AlphaLISA); type: cell-based; conditions: PBMC, compound 1 h or 20 h, then LPS 100 ng/mL 5 h, read-out: hPBMC IC50
Experimental: Frozen human PBMCs (Milestone, PB010C) were thawed and resuspended in RPMI 1640 medium (Gibco, A1049101) supplemented with 10%/o fetal bovine serum (Gibco, 10099141), 100 U/mL penicillin and 100 sg/mL streptomycin (Gibco, 15140122). On the same day. PBMCs were plated onto a 96-well clear cell plate (Labserv, 310109008) at 150 μL/well, with a cell density of 2×10^5 cells/well. Then 50 μL of diluted compound solution was added to corresponding wells with cells, such that the final concentration of the compound fell within the range of 0.026-10,000 nM. The final concentration of DMSO was 0.25%. […]
IL-6 standard solutions with different concentrations, ranging from […], were prepared by following the instructions for use of the product, 2 μL of each of the IL-6 standard solutions and test samples of cell supernatant were added to a white 384-well plate (PerkinElmer, 6007299), and 8 μL of a mixed solution of 5×anti-IL-6 receptor beads (final concentration of 10 μg/mL) and biotin-labeled anti-IL-6 antibody (final concentration of 1 nM) was then added to each well. […] After the incubation was complete, AlphaLISA signal values were measured on a microplate reader EnVision (PerkinElmer, 2105) in the AlphaScreen standard mode. […] The inhibition rate of the compound at each concentration was calculated by comparing the IL-6 concentration with that of the control group. […]

Sequence of IRAK4 protein in THP-1 cells (Q9NWZ3 whole entry): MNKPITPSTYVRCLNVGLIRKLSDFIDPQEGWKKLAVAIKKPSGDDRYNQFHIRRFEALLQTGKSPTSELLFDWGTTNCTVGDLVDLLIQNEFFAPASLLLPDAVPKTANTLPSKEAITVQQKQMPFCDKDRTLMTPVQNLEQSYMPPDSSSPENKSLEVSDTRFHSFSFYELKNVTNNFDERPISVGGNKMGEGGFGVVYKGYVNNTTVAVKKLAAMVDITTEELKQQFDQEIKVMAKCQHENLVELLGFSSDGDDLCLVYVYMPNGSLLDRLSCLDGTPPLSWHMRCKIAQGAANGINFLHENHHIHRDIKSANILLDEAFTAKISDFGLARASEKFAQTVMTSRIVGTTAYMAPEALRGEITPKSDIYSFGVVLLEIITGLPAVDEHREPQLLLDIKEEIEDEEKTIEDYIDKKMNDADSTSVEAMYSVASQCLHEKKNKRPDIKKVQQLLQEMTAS
Sequence of IRAK4 kinase (Q9NWZ3 whole entry): as above

## O=C1CCN(c2cc(C(=O)N3CCC4(CCC(CN5CCC(n6cc(NC(=O)c7cnn8ccc(N9C[C@H]%10C[C@@H]9CO%10)nc78)c(C(F)F)n6)CC5)CC4)CC3)ccc2Cl)C(=O)N1 [Example 1, 5-((1R,4R)-2-oxa-5-azabicyclo[2.2.1]heptan-5-yl)-N-(1-(1-((3-(4-chloro-3-(2,4-dioxotetrahydropyrimidin-1(2H)-yl)benzoyl)-3-azaspiro[5.5]undecan-9-yl)methyl)piperidin-4-yl)-3-(difluoromethyl)-1H-pyrazol-4-yl)pyrazolo[1,5-a]pyrimidine-3-carboxamide]
IRAK4 kinase
  IC50: 30.3 nM
[1]
  DC50: 3.7 nM
  Dmax: 90%
[2]
  IC50: 287 nM
[3]
  IC50: 3.1 nM

## O=C1CCN(c2cc(C(=O)N3CCC4(CCN(C[C@H]5CC[C@H](n6cc(NC(=O)c7cnn8ccc(N9C[C@H]%10C[C@@H]9CO%10)nc78)c(C(F)F)n6)CC5)CC4)CC3)ccc2Cl)C(=O)N1 [Example 2, 5-((1R,4R)-2-oxa-5-azabicyclo[2.2.1]heptan-5-yl)-N-(1-((1r,4R)-4-((9-(4-chloro-3-(2,4-dioxotetrahydropyrimidin-1(2H)-yl)benzoyl)-3,9-diazaspiro[5.5]undecan-3-yl)methyl)cyclohexyl)-3-(difluoromethyl)-1H-pyrazol-4-yl)pyrazolo[1,5-a]pyrimidine-3-carboxamide]
IRAK4 kinase
  IC50: 15.5 nM
[1]
  DC50: 1.8 nM
  Dmax: 95.8%
[2]
  IC50: 246 nM
[3]
  IC50: 2.2 nM
